In patent US9050341B2, “Methods of treating drug resistant and other tumors by administering 6,7-dialkoxy quinazoline derivatives” (NATCO PHARMA LIMITED, priority 2009, dated 2015):

Columns and labels:
[1] = Acute oral toxicity (MTD) in Wistar rats; format: in vivo
[2] = 30 day repeated dose toxicity in beagle dogs; format: in vivo
Procedure: The methods followed were as per CPMP/SWP/1042/99 (July 2000) and ICH S3A (March (1995)) guidelines. Prior to the 30 day repeated dose study, a dose range finding study was conducted, which included single dose MTD study followed by a 10 day repeated dose study. […]. The route of dosing was oral, by gelatin capsule. Based on the results of the dose range finding study, doses for the 30 days study were selected.
The 30 day repeated dose study employed 12 male and 12 female dogs (Marshall's Farm, China). The dogs were acclimatized for a minimum period of 2 weeks and randomly divided into four main groups (G1-G4), each group comprising of 3 dogs per sex. The animals were dosed orally with capsules of NRC-2694A for a period of 30 consecutive days at dose levels of 10 mg/kg b.wt/day (G2-low dose), 20 mg/kg b.wt/day (G3-mid dose) and 40 mg/kg b.wt/day (G4-high dose). […]. The control group (G1-0 mg/kg b. wt/day) animals were dosed by oral capsule with placebo.
The study also tracked body weight (weekly), food consumption (daily), opthalmological status (start and end), hematological and biochemical analyses (start and end), toxicokinetics analysis of plasma (start and end). […]

[3] = system: Salmonella typhimurium (TA 98, TA 100, TA 102, TA 1535 and TA 1537); test: Ames bacterial reverse mutation assay; conditions: five tester strains, with or without S9
Procedure: The present study was conducted by the direct plate incorporation method with five tester strains of Salmonella typhimurium (TA 98, TA 100, TA 102, TA 1535 and TA 1537). […] Simultaneously, negative control cultures received DMSO and the respective positive controls received the mutagens 2-Amino anthracene, 2-Nitrofluorene, Sodium azide, 9-Aminoacridine and Mitomycin C (Sigma, St. Louis). In order to study the role of metabolic activation, cultures were incubated both with and without S9 mixture. The induction of Histidine positive colonies was computed and results were statistically treated for comparison.

[4] = Functional observational battery (FOB); format: in vivo, Wistar rats
Procedure: The study was conducted in accordance with “S7A Safety Pharmacology Studies for Human Pharmaceuticals, ICH” July 2001, and as per this study protocol. […] Rats that had been fasted for 16 to 18 hours (access to water was not interrupted) were dosed with the compound or water. The rats were administered the compound in an aqueous formulation at three levels, 75, 125 and 250 mg/kg b.wt, as a single oral dose by gavage. The control group received water. The rats were subjected to the FOB 60-120 min. after drug administration.
Animals were subjected to the FOB one at a time except for the multiple activity cage where four animals were placed in four different cages simultaneously. Once complete, the animals were returned to their home cage and the cage placed back on the stand.
The FOB can be employed to assess multiple neurobiological domains including neuromuscular (weakness, in coordination, gait and tremor), sensory (audition, vision and somatosensory), and autonomic (pupil response and salivation) functions. The measures of a neuro behavioral screening battery have been divided into specific functional domains. For example, Lacrimation, salivation, pupil response, palpebral closure, defecation and urination are measures of some aspects of the autonomic system. Similarly the neuro muscular domain can be assessed based on the gait/mobility score, landing foot splay, grip strength and righting reflex; sensorimotor domain based on response to tail pinch and click/touch/approach response; CNS excitability domain based on ease of removal and handling of the animal, clonic/tonic movements, arousal and vocalization; CNS activity domain based on home cage posture, palpebral closure, rearing and motor activity and finally the physiological domain is assessed based on the body weight, body temperature and piloerection.

[5] = Respiratory function, whole body plethysmograph; format: in vivo; conditions: conscious male Wistar rats, 75, 125 and 250 mg/kg oral, 3 hours
Procedure: This study evaluated the effect of NRC-2694A monohydrochloride on respiratory function in conscious Wistar rats following administration of a single dose using a whole body plethysmograph. The study was conducted in accordance with “S7A Safety Pharmacology Studies for Human Pharmaceuticals, ICH” issued July 2001. The study used a parallel design with one vehicle and three test item treated groups. […] Male Wistar rats were placed in plethysmography chambers and baseline respiratory parameters were recorded for 30 minutes. Following drug administration respiratory parameters were recorded continuously for 3 hours.

[6] = Cardiovascular parameters in telemetered dogs; format: in vivo, Beagle dogs; conditions: for cardiovascular parameters (blood pressure, pulse pressure, heart rate, QT and QTcf intervals): telemetered male Beagle dogs, 15, 30 and 60 mg/kg b.wt. oral
Procedure: The study was conducted in accordance with ICH “S7A Safety Pharmacology Studies for Human Pharmaceuticals, Note for Guidance on Safety Pharmacology Studies for Human Pharmaceuticals, July 2001”. The doses tested were 0, 15, 30 and 60 mg/kg b.wt. given orally by gelatin capsule. Four male Beagle dogs, each implanted with a TL1IM2-D70-PCT transmitter (Data Sciences International, USA), were used for the study. During the study, the dogs were administered 4 oral treatments representing placebo and all test substance treatment groups with a three day (˜72 hour) wash-out period between each administration, using a Latin square cross-over design.
On dosing days, the telemetered dogs were observed once before commencement of data collection, continuously through 2 hours post-dose remotely and ˜8 hours post-dose for changes in behaviour. Cardiovascular parameters (systolic, diastolic and mean blood pressure, pulse pressure and heart rate) were recorded continuously for ˜60 minutes before dosing and up to 24 hours after dosing. Systolic, diastolic and mean blood pressures, pulse pressure and heart rate were obtained from the femoral artery waveform. Electrocardiograms were recorded continuously for ˜60 minutes before dosing and up to 24 hours after dosing. Electrocardiograms were obtained from subcutaneously placed bio-potential leads in a Lead II configuration. Heart rate and QT intervals were determined from the ECG's.

SMILES: C#Cc1cccc(Nc2ncnc3cc(OC)c(OCCCN4CCOCC4)cc23)c1 [NRC-2694, N-(3-ethylnylphenyl)-7-methoxy-6-[3-(4-morpholinyl)propoxy]-4-quinazolinamine]
- MTD, mice compared with rats ([1]; rat, in vivo): the same in mice and rats
- toxicity compared with Erlotinib ([2]; beagle dogs): significantly less toxic than Erlotinib HCl
- mutagenicity in the Ames test [3]: not mutagenic
- induction of His revertant colonies ([3]; 0.0125-1.2500 mg/plate): lack of statistically significant induction
- neurotoxicity toward the central and peripheral nervous system ([4]; Wistar rats, FOB): no evidence of neurotoxicity
- respiratory parameters: respiratory rate, tidal volume, minute volume, and Penh [5]: lacks toxicity against respiratory function
- cardiovascular parameters (blood pressure, pulse pressure, heart rate, QT and QTcf intervals) [6]: lacks toxicity against cardiovascular function

SMILES: C#Cc1cccc(Nc2ncnc3cc(OC)c(OCCCN4CCOCC4)cc23)c1.Cl [NRC-2694 monohydrochloride, N-(3-ethylnylphenyl)-7-methoxy-6-[3-(4-morpholinyl)propoxy]-4-quinazolinamine mono hydrochloride]
- maximum tolerated dose (MTD) ([1]; acute oral gavage, Wistar rats): 1000 mg/kg body weight
- gross pathological examination ([1]; rats): did not reveal any lesions of pathological significance, except minimal uterus distension in two female rats
- chromodacryoorhea, incidence ([1]; rats, G4 1000 mg/kg body wt.): 10/10
- mild to severe lethargy, incidence ([1]; rats, G4 1000 mg/kg body wt.): 10/10
- piloerection, incidence ([1]; rats, G4 1000 mg/kg body wt.): 10/10
- ptosis, incidence ([1]; rats, G4 1000 mg/kg body wt.): 4/10
- weakness, incidence ([1]; rats, G4 1000 mg/kg body wt.): 1/10
- body weight and percent body weight change ([1]; rats, mid and high dose, days 7 and 14): Statistically significant reduction
- toxic signs ([1]; rats, oral gavage, 1000 mg/kg body weight (high dose)): marked toxic signs with reduction in body weight but devoid of any pathological lesions and mortality
- major toxic signs or mortality ([1]; rats, oral gavage, 250 (low dose) and 500 mg/kg body weight (mid dose)): did not produce any major toxic signs or mortality
- mortality ([1]; rats, oral, 250, 500 and 1000 mg/kg): No mortality
- no observed adverse effect level (NOAEL) ([2]; beagle dogs, 30 days, orally by capsule): 10 mg/kg b.wt/day
- symptoms of toxicity ([2]; dogs, low dose (G2) 10 mg/kg b.wt/day, 30 days): No symptoms of toxicity
- mutagenicity in the Ames test [3]: non-mutagenic
- adverse effects in the functional observational battery ([4]; Wistar rats, 75, 125 and 250 mg/kg b.wt single oral dose): did not show any adverse effects
- influence on the parameters of the FOB ([4]; Wistar rats, 75, 125 and 250 mg/kg b.wt, 60-120 minutes post treatment): no influence on any of the parameters
- respiratory parameters: respiratory rate, tidal volume, minute volume, and Penh [5]: did not influence any of the observed parameters
- no observed effect level ([6]; cardiovascular parameters, male Beagle dogs, oral): 60 mg/kg b.wt.
- cardiovascular parameters (blood pressure, pulse pressure, heart rate, QT and QTcf intervals) [6]: no significant negative effects
